Measured values taken from patent publication US10059721B2, “Substituted thieno[3,2-b]pyrazines for inhibiting cancer cell proliferation and inducing cancer cell apoptosis” (DONGGUK UNIVERSITY INDUSTRY-ACADEMIC COOPERATION FOUNDATION, priority 2014, dated 2018).

How the values were obtained:
Type in all cases: cell-based
HUVEC = test: Cell growth inhibition experiment (SRB), HUVEC; settings: Homo sapiens, incubated for 96 hours, read-out: IC50 (μM) of cancer cell lines HUVEC
Description: (§1) The 4-(aryl)-N-(2-alkoxythieno[3,2-b]pyrazin-3-yl)-piperazin-1-carboxamide derivative compounds synthesized according to Examples 1 to 27 of the present invention were treated with various human tissue-derived cancer cell lines cultured according to Experimental Example 1, and thus the inhibitory effect of the growth of human cancer cells was confirmed. The cell growth inhibition experiment was conducted using sulforhodamine B (SRB) technique (Skehan et al., J. National Cancer Institute, 1990, 82: 1107-1112). Specifically, each cell line was seeded in a 96-well plate at a density of 2 to 3×10^3 cells/well, cultured overnight, and then treated with the 4-(aryl)-N-(2-alkoxythieno[3,2-b]pyrazin-3-yl)-piperazin-1-carboxamide derivative compounds of the present invention. The experiment was repeated 3 times for each compound. Cells treated with each compound were additionally incubated for 96 hours, fixed with 10% trichloroacetic acid (TCA), and then left at 4° C. for 1 hour. The resultant was washed 3 times with distilled water. Thereafter, each cell was treated with 0.4% sulforhodamine B dissolved in 1% acetic acid, stained for 30 minutes, and then washed 4 times with 1% acetic acid. The resultant was dried in the air. After shaking the resultant in Tris solution (10 mM) for 5 minutes, the absorbance was measured at 530 nm using a Benchmark Plus Microplate reader (Bio-Rad Laboratories, Hercules, Calif.).
(§2) In order to convert the OD530 value to the number of viable cells per each well, the measured OD530 value was compared to the standard OD530-vs.-cell number curve of each cell line. The percent survival was calculated using the following formula: % survival=Nlive cells(test)/Nlive cells(control)×100
(§3) IC50 values were calculated by nonlinear regression analysis.

[1] = test system: UMRC2 (kidney cancer) cell line; test: Cell growth inhibition experiment (SRB), UMRC2; settings: Homo sapiens, incubated for 96 hours, read-out: IC50 (μM) of cancer cell lines UMRC2
Description: (§4) The cell lines below were used in order to confirm the efficacy of the compounds synthesized in Examples 1 to 27. Human PANC-1 (pancreatic cancer) and MDA-MB-231 (breast cancer) cell lines were obtained from American Type Culture Collection (ATCC; Manassas, Va.); and HN31 (head and neck cancer) and UMRC2 (kidney cancer) cell lines were secured from the United States National Institutes of Health (Bethesda, Md.). The MDA-MB-231, UMRC2, HN31, and PANC-1 cell lines were cultured in Dulbecco modified Eagle medium (DMEM) containing FBS (10%), HEPES (10 mM), penicillin (100 U/mL), and streptomycin (100 μg/mL). All cell lines were cultured in an incubator (37° C., 5% CO2).
as §1, §2, §3

[2] = test system: HN31 (head and neck cancer) cell line; test: Cell growth inhibition experiment (SRB), HN31; settings: Homo sapiens, incubated for 96 hours, read-out: IC50 (μM) of cancer cell lines HN31
Description: as §4, §1, §2, §3

HT29 = test: Cell growth inhibition experiment (SRB), HT29; settings: Homo sapiens, HT-29, incubated for 96 hours, read-out: IC50 (μM) of cancer cell lines HT29
Description: as §1, §2, §3

A549 = test: Cell growth inhibition experiment (SRB), A549; settings: Homo sapiens, incubated for 96 hours, read-out: IC50 (μM) of cancer cell lines A549
Description: as §1, §2, §3

[3] = test system: MDA-MB-231 (breast cancer) cell line; test: Cell growth inhibition experiment (SRB), MDA-MB-231; settings: Homo sapiens, incubated for 96 hours, read-out: IC50 (μM) of cancer cell lines MDA-MB-231
Description: as §4, §1, §2, §3

[4] = test system: PANC-1 (pancreatic cancer) cell line; test: Cell growth inhibition experiment (SRB), PANC-1; settings: Homo sapiens, incubated for 96 hours, read-out: IC50 (μM) of cancer cell lines PANC-1
Description: as §4, §1, §2, §3

HEK293 = test: Cell growth inhibition experiment (SRB), HEK293; settings: Homo sapiens, incubated for 96 hours, read-out: IC50 (μM) of cancer cell lines HEK293
Description: as §1, §2, §3

SK-OV-3 = test: Cell growth inhibition experiment (SRB), SK-OV-3; settings: Homo sapiens, incubated for 96 hours, read-out: IC50 (μM) of cancer cell lines SK-OV-3
Description: as §1, §2, §3

Row | SMILES | IC50 (HUVEC) [µM] | IC50 [1] [µM] | IC50 [2] [µM] | IC50 (HT29) [µM] | IC50 (A549) [µM] | IC50 [3] [µM] | IC50 [4] [µM] | IC50 (HEK293) [µM] | IC50 (SK-OV-3) [µM]
1 | CCOc1nc2cc(Cl)sc2nc1NC(=O)N1CCN(c2cc(OC)cc(OC)c2)CC1 [Example 4, N-(6-chloro-2-ethoxythieno[3,2-b]pyrazin-3-yl)-4-(3,5-dimethoxyphenyl)piperazin-1-carboxamide] | 2.25 | 0.54 | 1.54 | < 2.5 | < 2.5 | 0.63 | 1.28 | < 2.5 | < 2.5
2 | COc1cc(OC)cc(N2CCN(C(=O)Nc3nc4sc(Cl)cc4nc3OC)CC2)c1 [Example 1, N-(6-chloro-2-methoxythieno[3,2-b]pyrazin-3-yl)-4-(3,5-dimethoxyphenyl)piperazin-1-carboxamide] | 0.12 | 0.03 | 0.27 | 0.31 | 2.13 | 0.02 | 0.53 | 0.63 | 0.27
3 | CC(C)Oc1nc2cc(Cl)sc2nc1NC(=O)N1CCN(c2cc(F)cc(F)c2)CC1 [Example 9, N-(6-chloro-2-isopropoxythieno[3,2-b]pyrazin-3-yl)-4-(3,5-difluorophenyl)piperazin-1-carboxamide] | < 2.5 | < 2.5 | < 2.5 | < 2.5 | < 2.5 | < 2.5 | < 2.5 | < 2.5 | < 2.5
4 | CCOc1nc2ccsc2nc1NC(=O)N1CCN(c2cc(F)cc(F)c2)CC1 [Example 15, 4-(3,5-difluorophenyl)-N-(2-ethoxythieno[3,2-b]pyrazin-3-yl)piperazin-1-carboxamide] | < 2.5 | 0.25 | 0.78 | < 2.5 | < 2.5 | 0.25 | 1.12 | < 2.5 | < 2.5
5 | COc1cc(C)cc(N2CCN(C(=O)Nc3nc4sccc4nc3OC)CC2)c1 [Example 21, 4-(3-methoxy-5-methylphenyl)-N-(2-methoxythieno[3,2-b]pyrazin-3-yl)piperazin-1-carboxamide] | < 2.5 | 1.74 | < 2.5 | 1.85 | 1.63 | 2.21 | 2.12 | 1.25 | 1.85
6 | COc1nc2ccsc2nc1NC(=O)N1CCN(c2cc(OC(F)(F)F)cc(C(F)(F)F)c2)CC1 [Example 20, N-(2-methoxythieno[3,2-b]pyrazin-3-yl)-4-(3-(trifluoromethoxy)-5-(trifluoromethyl)phenyl)piperazin-1-carboxamide] | 0.21 | < 2.5 | 0.36 | 0.62 | 0.15 | 0.25 | 0.36 | 0.12 | 0.22
7 | CCOc1nc2cc(Cl)sc2nc1NC(=O)N1CCN(c2cc(F)cc(F)c2)CC1 [Example 6, N-(6-chloro-2-ethoxythieno[3,2-b]pyrazin-3-yl)-4-(3,5-difluorophenyl)piperazin-1-carboxamide] | < 2.5 | 1.21 | 2.1 | < 2.5 | < 2.5 | 1.13 | 1.98 | < 2.5 | < 2.5
8 | Cc1cc(C)cc(N2CCN(C(=O)Nc3nc4sccc4nc3OC(C)C)CC2)c1 [Example 17, 4-(3,5-dimethylphenyl)-N-(2-isopropoxythieno[3,2-b]pyrazin-3-yl)piperazin-1-carboxamide] | < 2.5 | < 2.5 | < 2.5 | < 2.5 | < 2.5 | < 2.5 | < 2.5 | < 2.5 | < 2.5
9 | COc1nc2ccsc2nc1NC(=O)N1CCN(c2cc(F)cc(C(F)(F)F)c2)CC1 [Example 27, 4-(3-fluoro-5-(trifluoromethyl)phenyl)-N-(2-methoxythieno[3,2-b]pyrazin-3-yl)piperazin-1-carboxamide] | < 2.5 | < 2.5 | < 2.5 | < 2.5 | < 2.5 | < 2.5 | < 2.5 | < 2.5 | < 2.5
10 | COc1cc(OC)cc(N2CCN(C(=O)Nc3nc4sccc4nc3OC(C)C)CC2)c1 [Example 16, 4-(3,5-dimethoxyphenyl)-N-(2-isopropoxythieno[3,2-b]pyrazin-3-yl)piperazin-1-carboxamide] | < 2.5 | < 2.5 | < 2.5 | < 2.5 | < 2.5 | 2.12 | < 2.5 | < 2.5 | < 2.5
11 | COc1cc(OC)cc(N2CCN(C(=O)Nc3nc4sccc4nc3OC)CC2)c1 [Example 10, 4-(3,5-dimethoxyphenyl)-N-(2-methoxythieno[3,2-b]pyrazin-3-yl)piperazin-1-carboxamide] | 0.06 | 0.03 | 0.18 | 0.27 | 1.14 | 0.02 | 0.38 | 0.56 | 0.23
12 | COc1nc2ccsc2nc1NC(=O)N1CCN(c2cc(F)cc(F)c2)CC1 [Example 12, 4-(3,5-difluorophenyl)-N-(2-methoxythieno[3,2-b]pyrazin-3-yl)piperazin-1-carboxamide] | 0.07 | 0.04 | 0.33 | 0.3 | 1.28 | 0.05 | 0.24 | 0.55 | 0.29
13 | Cc1cc(C)cc(N2CCN(C(=O)Nc3nc4sc(Cl)cc4nc3OC(C)C)CC2)c1 [Example 8, N-(6-chloro-2-isopropoxythieno[3,2-b]pyrazin-3-yl)-4-(3,5-dimethylphenyl)piperazin-1-carboxamide] | < 2.5 | < 2.5 | < 2.5 | < 2.5 | < 2.5 | < 2.5 | < 2.5 | < 2.5 | < 2.5
14 | COc1nc2ccsc2nc1NC(=O)N1CCN(c2cc(C)cc(OC(F)(F)F)c2)CC1 [Example 19, N-(2-methoxythieno[3,2-b]pyrazin-3-yl)-4-(3-methyl-5-(trifluoromethoxy)phenyl)piperazin-1-carboxamide] | 0.68 | 0.25 | 1.12 | 0.71 | 1.52 | < 2.5 | 0.58 | 1.23 | < 2.5
15 | COc1nc2cc(Cl)sc2nc1NC(=O)N1CCN(c2cc(C)cc(C)c2)CC1 [Example 2, N-(6-chloro-2-methoxythieno[3,2-b]pyrazin-3-yl)-4-(3,5-dimethylphenyl)piperazin-1-carboxamide] | 0.91 | 0.08 | 0.99 | 0.62 | < 2.5 | 0.06 | 0.95 | 0.93 | 0.82
16 | CC(C)Oc1nc2ccsc2nc1NC(=O)N1CCN(c2cc(F)cc(F)c2)CC1 [Example 18, 4-(3,5-difluorophenyl)-N-(2-isopropoxythieno[3,2-b]pyrazin-3-yl)piperazin-1-carboxamide] | < 2.5 | < 2.5 | < 2.5 | < 2.5 | < 2.5 | < 2.5 | < 2.5 | < 2.5 | < 2.5
